# From patent US8859574B2 (IRM LLC, priority 2008, dated 2014)
# Biological target: T1, IGF-1R Ba/F3 (Homo sapiens, UniProt P08069)
# T1 construct: fused on or other part: TEL- (or BCR-) IGF-1R in Ba/F3: the kinase part holds the site
# Test: Ba/F3 Cell Viability Inhibition Assay (IGF-1R Ba/F3)
# Format: cell-based, murine
# Conditions: Tel-TK transformed Ba/F3 cells, 48 hours, Britelite luminescence
# How it was run: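 A 48 h compound treatment at 37 °C (3750 cells/well) was followed by Britelite luminescence to measure viability. Cells were Ba/F3 pro-B cells, IL-3-independent via TEL-fused IGF-1R kinase transduction. A logistic fit gave IC50 as 50% viability relative to DMSO control.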
# T1 sequence (P08069 999-1274 limits assumed): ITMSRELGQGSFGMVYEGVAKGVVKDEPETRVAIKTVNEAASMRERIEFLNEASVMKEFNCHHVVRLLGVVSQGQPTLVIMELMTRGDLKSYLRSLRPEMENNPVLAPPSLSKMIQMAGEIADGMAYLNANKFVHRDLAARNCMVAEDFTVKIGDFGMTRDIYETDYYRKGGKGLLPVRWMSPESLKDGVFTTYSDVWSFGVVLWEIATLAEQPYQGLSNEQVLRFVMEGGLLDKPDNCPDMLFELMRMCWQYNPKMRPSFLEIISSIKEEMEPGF
row,Structure (SMILES),IC50 [nM]
1,"CCNC(=O)N1CCC(c2cc(C)c(Nc3ncc(Cl)c(Nc4cc(C)[nH]n4)n3)cc2C)CC1 [Compound 71, 4-(4-(5-chloro-4-(5-methyl-1H-pyrazol-3-ylamino)pyrimidin-2-ylamino)-2,5-dimethylphenyl)-N-ethylpiperidine-1-carboxamide]",2
2,"Cc1cc(Nc2nc(Nc3cc(C)c(C4CCN(C)CC4)cc3F)ncc2Cl)no1 [Compound 159, 5-chloro-N2-(2-fluoro-5-methyl-4-(1-methylpiperidin-4-yl)phenyl)-N4-(5-methylisoxazol-3-yl)pyrimidine-2,4-diamine]",73
3,"Cc1cc(Nc2nc(Nc3cc(C)c(C4CCN(C(=O)CCN(C)C)CC4)cc3C)ncc2Cl)n[nH]1 [Compound 239, 1-(4-(4-(5-chloro-4-(5-methyl-1H-pyrazol-3-ylamino)pyrimidin-2-ylamino)-2,5-dimethylphenyl)piperidin-1-yl)-3-(dimethylamino)propan-1-one]",73
4,"Cc1cc(Nc2ncc(Cl)c(Nc3cc(C(F)(F)F)[nH]n3)n2)c(F)cc1C1CCNCC1 [Compound 171, 5-chloro-N2-(2-fluoro-5-methyl-4-(piperidin-4-yl)phenyl)-N4-(5-(trifluoromethyl)-1H-pyrazol-3-yl)pyrimidine-2,4-diamine]",67
5,"Cc1cc(Nc2nc(Nc3cc(C)c(C4CCN(C(=O)N5CCOCC5)CC4)cc3F)ncc2Cl)n[nH]1 [Compound 111, (4-(4-(5-chloro-4-(5-methyl-1H-pyrazol-3-ylamino)pyrimidin-2-ylamino)-5-fluoro-2-methylphenyl)piperidin-1-yl)(morpholino)methanone]",8
6,"Cc1cc(Nc2nc(Nc3cc(C(F)(F)F)c(C4CCNCC4)cc3C)ncc2Cl)n[nH]1 [Compound 254, 5-chloro-N4-(5-methyl-1H-pyrazol-3-yl)-N2-(2-methyl-4-(piperidin-4-yl)-5-(trifluoromethyl)phenyl)pyrimidine-2,4-diamine]",70
7,"Cc1cc(Nc2nc(Nc3cc(C)c(C4CCN(C(=O)C5CNC5)CC4)cc3F)ncc2Cl)n[nH]1 [Compound 131, Azetidin-3-yl(4-(4-(5-chloro-4-(5-methyl-1H-pyrazol-3-ylamino)pyrimidin-2-ylamino)-5-fluoro-2-methylphenyl)piperidin-1-yl)methanone]",1250
8,"Cc1cc(Nc2nc(Nc3cc(C)c(C4CCN(C(=O)c5c(C)nn(C)c5C)CC4)cc3F)ncc2Cl)n[nH]1 [Compound 129, (4-(4-(5-chloro-4-(5-methyl-1H-pyrazol-3-ylamino)pyrimidin-2-ylamino)-5-fluoro-2-methylphenyl)piperidin-1-yl)(1,3,5-trimethyl-1H-pyrazol-4-yl)methanone]",25
9,"CNC(=O)CN1CCCC(c2cc(C)c(Nc3ncc(Cl)c(Nc4cc(C)[nH]n4)n3)cc2C)C1 (stereo not shown) [Compound 44, 2-(3-(4-(5-chloro-4-(5-methyl-1H-pyrazol-3-ylamino)pyrimidin-2-ylamino)-2,5-dimethylphenyl)piperidin-1-yl)-N-methylacetamide]",15
10,"Cc1cc(Nc2nc(Nc3cc(C)c(C4CCCCN4Cc4c(C)noc4C)cc3C)ncc2Cl)n[nH]1 (stereo not shown) [Compound 191, 5-chloro-N2-(4-(1-((3,5-dimethylisoxazol-4-yl)methyl)piperidin-2-yl)-2,5-dimethylphenyl)-N4-(5-methyl-1H-pyrazol-3-yl)pyrimidine-2,4-diamine]",113
11,"Cc1cc(Nc2nc(Nc3cc(C)c(C4CCN(C5CCC(=O)CC5)CC4)cc3F)ncc2Cl)n[nH]1 [Compound 290, 4-(4-(4-(5-chloro-4-(5-methyl-1H-pyrazol-3-ylamino)pyrimidin-2-ylamino)-5-fluoro-2-methylphenyl)piperidin-1-yl)cyclohexanone]",23
12,"Cc1cc(C2CCNCC2)c(C)cc1Nc1ncc(Cl)c(Nc2ccc[nH]c2=O)n1 [Compound 158, 3-(5-chloro-2-(2,5-dimethyl-4-(piperidin-4-yl)phenylamino)pyrimidin-4-ylamino)pyridin-2(1H)-one]",62
13,"CCOC(=O)N1CCC(c2cc(F)c(Nc3ncc(Cl)c(Nc4cc(C)[nH]n4)n3)cc2C)CC1 [Compound 66, Ethyl 4-(4-(5-chloro-4-(5-methyl-1H-pyrazol-3-ylamino)pyrimidin-2-ylamino)-5-fluoro-2-methylphenyl)piperidine-1-carboxylate]",64
14,CC(=O)N1CCC(C(=O)N2CCC(c3cc(F)c(Nc4ncc(Cl)c(Nc5cc(C)[nH]n5)n4)cc3C)CC2)CC1 [Compound 114],48
15,"Cc1cc(Nc2nc(Nc3cc(C)c(C4CCN(C[C@H](O)C(F)(F)F)CC4)cc3C)ncc2C)n[nH]1 [Compound 179, (S)-3-(4-(2,5-dimethyl-4-(5-methyl-4-(5-methyl-1H-pyrazol-3-ylamino)pyrimidin-2-ylamino)phenyl)piperidin-1-yl)-1,1,1-trifluoropropan-2-ol]",120
16,"Cc1cc(Nc2nc(Nc3cc(Cl)c(C4CCN(C(=O)CN(C)C)CC4)cc3Cl)ncc2Cl)n[nH]1 [Compound 77, 1-(4-(2,5-dichloro-4-(5-chloro-4-(5-methyl-1H-pyrazol-3-ylamino)pyrimidin-2-ylamino)phenyl)piperidin-1-yl)-2-(dimethylamino)ethanone]",7
17,"Cc1cc(Nc2nc(Nc3cc(C)c(C4CCN(C(=O)n5cnnn5)CC4)cc3F)ncc2Cl)n[nH]1 [Compound 140, (4-(4-(5-chloro-4-(5-methyl-1H-pyrazol-3-ylamino)pyrimidin-2-ylamino)-5-fluoro-2-methylphenyl)piperidin-1-yl)(1H-tetrazol-1-yl)methanone]",139
18,"Cc1cc(Nc2nc(Nc3cc(C(F)(F)F)c(N4CCOCC4)cc3F)ncc2Cl)n[nH]1 [Compound 153, 5-chloro-N2-(2-fluoro-4-morpholino-5-(trifluoromethyl)phenyl)-N4-(5-methyl-1H-pyrazol-3-yl)pyrimidine-2,4-diamine]",91
19,"Cc1cc(Nc2nc(Nc3cc(Cl)c(C4CCN(C(=O)CN5CCC5)CC4)cc3C)ncc2Cl)n[nH]1 [Compound 96, 2-(azetidin-1-yl)-1-(4-(2-chloro-4-(5-chloro-4-(5-methyl-1H-pyrazol-3-ylamino)pyrimidin-2-ylamino)-5-methylphenyl)piperidin-1-yl)ethanone]",24
20,"Cc1cc(Nc2nc(Nc3cc(C(F)(F)F)c(C4CCN(CC(N)=O)CC4)cc3F)ncc2Cl)n[nH]1 [Compound 36, 2-(4-(4-(5-chloro-4-(5-methyl-1H-pyrazol-3-ylamino)pyrimidin-2-ylamino)-5-fluoro-2-(trifluoromethyl)phenyl)piperidin-1-yl)acetamide]",19
21,"Cc1cc(Nc2nc(Nc3cc(C)c(C4CCN(C5CN(S(C)(=O)=O)C5)CC4)cc3F)ncc2Cl)n[nH]1 [Compound 300, 5-chloro-N2-(2-fluoro-5-methyl-4-(1-(1-(methylsulfonyl)azetidin-3-yl)piperidin-4-yl)phenyl)-N4-(5-methyl-1H-pyrazol-3-yl)pyrimidine-2,4-diamine]",32
22,"CCOC(=O)N1CCC(c2cc(C)c(Nc3ncc(Cl)c(Nc4cc(C)[nH]n4)n3)cc2Cl)CC1 [Compound 67, ethyl 4-(2-chloro-4-(5-chloro-4-(5-methyl-1H-pyrazol-3-ylamino)pyrimidin-2-ylamino)-5-methylphenyl)piperidine-1-carboxylate]",182
